Reference: patent US20260240837A1, “Compositions Reducing the Expression or Activity of C1 GALT1 for Treating Ewing Sarcoma” (University of Massachusetts Medical School, priority 2023, published 2026)
“Also recorded” adds a separate entry of the source. Residues, ends and D or L forms follow the SMILES beside them. *: point of attachment. Cbz = O=C(OCc1ccccc1)*

How the values were obtained:
[1] = tested on: FLAG-SMO (T55A) and FLAG-SMO (T500A); assay: Immunoblot of FLAG-SMO mutants stably expressed in A673 cells; type: cell-based, human; details: 10 μM MG132 for 12 hours or 100 nM bafilomycin A1 for 6 hours, FIG. 7L
Excerpt: To generate cell lines stably ectopically expressing EWSR1::FLI1 (also referred to as EWS-FLI1, EWS::FLI1, or EWSR1-FLI1), TC-71 or NIH 3T3 cells were transduced with the lentiviral expression plasmid pCDH-puro-EWS-FLI1 or, as a control, pCDH-CMV-MCS-EFla-Puro and cells were selected with puromycin for five days. NIH 3T3 cells stably expressing SMO were generated by transduction of pHAGE-SMO or, as a control, pHAGE puro. NIH 3T3 cells stably expressing C1GALT1 were generated by transduction of C1GALT1-expression plasmid EX-W0494-Lv120 or, as a control, EX-EGFP-Lv120. A673 cell lines stably expressing FLAG-tagged wild-type SMO, FLAG-SMO (T55A), or FLAG-SMO (T500A) used lentiviral plasmids synthesized by GenScript in the pGenLenti vector.
Cells extracts were prepared in radioimmunoprecipitation assay (RIPA) buffer (1% Triton-X100, 0.1% sodium dodecyl sulfate (SDS), 0.5% deoxycholic acid, 20 mM tris(hydroxymethyl)aminomethane (Tris), pH 7.5, 10% glycerol) containing 1× complete ethylenediaminetetraacetic acid (EDTA)-free protease inhibitor cocktail (Roche, Basel, Switzerland, Cat #11873580001) and 1 mM phenylmethylsulfonyl fluoride (PMSF). […]

[2] = tested on: FLAG-SMO (T55A) and FLAG-SMO (T500A); assay: Immunoblot of FLAG-SMO mutants stably expressed in TC-71 cells; type: cell-based, human; details: FIG. 9F
Method: (§1) Cells extracts were prepared in radioimmunoprecipitation assay (RIPA) buffer (1% Triton-X100, 0.1% sodium dodecyl sulfate (SDS), 0.5% deoxycholic acid, 20 mM tris(hydroxymethyl)aminomethane (Tris), pH 7.5, 10% glycerol) containing 1× complete ethylenediaminetetraacetic acid (EDTA)-free protease inhibitor cocktail (Roche, Basel, Switzerland, Cat #11873580001) and 1 mM phenylmethylsulfonyl fluoride (PMSF). For the immunoblot in FIG. 7L, cells expressing FLAG-SMO (wild-type and mutants) were treated with 10 μM MG132 (Selleck Chemicals, Houston, TX, Cat #S2619; CAS No. 1211877-36-9) for 12 hours or 100 nM bafilomycin A1 (Selleck Chemicals, Cat #S1413; CAS No. 88899-55-2) for 6 hours. […]

[3] = tested on: SMO; assay: Immunoblot and qRT-PCR of SMO in A673 cells; type: cell-based, human; details: 100 nM ITZ for 72 hours plus MG132 or BafA1, FIG. 7K
Method: (§2) Total RNA was isolated from cells using Trizol (Invitrogen, Cat #15596). cDNA was synthesized using Proto Script II reverse transcription kit (New England Biolabs (NEB), Ipswich, MA, Cat #E6560) and real-time PCR reactions were performed using Quant Studio 3 (Applied Biosystems by Thermo Fisher Scientific) using primer sequences listed in Table 2. Gene expression was normalized to that of GAPDH. A control without reverse transcription (no-RT control) was carried out in parallel to rule out the possibility of DNA contamination. The experiments were performed three independent times.
as §1

[4] = tested on: FLAG-SMO (T55A) and FLAG-SMO (T500A); assay: Ubiquitination immunoprecipitation assay in A673 cells; type: cell-based, human; details: A673 cells expressing HA-Ub; 10 μM MG132 or 100 nM bafilomycin A1 for 8 hours; FIG. 7M
Method: A673 cells stably expressing FLAG-tagged wild-type SMO, FLAG-SMO (T55A) or FLAG-SMO (T500A) were transfected with a plasmid expressing HA-tagged ubiquitin (HA-Ub; Addgene plasmid #18712 (Kamitani et al., 1997) and treated in the presence or absence of 10 μM MG132 for 8 hours or 100 nM bafilomycin A1 for 8 hours. Cell lysates were incubated with either an anti-HA magnetic beads (Sigma, Cat #SAE0197) or anti-FLAG M2 magnetic beads (Sigma, Cat #M8823), and immunoprecipitated proteins were detected using an anti-FLAG M2 (1:1500 dilution; Sigma, Cat #F1804) or anti-HA (1:1500 dilution; Cell Signaling Cat #2367) antibody.

[5] = target: C1GALT1 (Homo sapiens, UniProt Q9NS00); details: previous studies (Lin et al., 2018); cited from earlier work
[6] = tested on: EWSR1::FLI1^tdTomato reporter; assay: Flow cytometry of tdTomato in A673/EWSR1::FLI1^tdTomato/Cas9/EGFP reporter cells; type: cell-based, human; details: 10 μM for 72 hours; FIG. 5D
Method: To confirm that knockdown of EWSR1::FLI1 would reduce tdTomato fluorescence, A673/EWSR1::FLI1^tdTomato cells (1×10^5 cells/well in a 6-well plate) were infected with lentiviral particles expressing a non-silencing (NS), EWSR1, or FLI1 short hairpin RNA (shRNA) (Table 3), selected with 2 μg/ml puromycin for 5 days, and analyzed by flow cytometry using a BD LSRII flow cytometer (BD Biosciences). A673/EWSR1::FLI1^tdTomato cells were then infected with lentiviral particles expressing the plasmid lentiCas9-Blast (a gift from Feng Zhang; Addgene plasmid #52962; (Sanjana et al., 2014)) and selected with 3 μg/ml blasticidin for 7 days. Cas9 activity was confirmed by transducing A673/EWSR1::FLI1^tdTomato/Cas9 cells with the lentiviral vector pXPR_011 (a gift from John Doench and David Root; Addgene plasmid #59702; (Doench et al., 2014)), which carries a puromycin resistance marker and includes an enhanced green fluorescent protein (EGFP, also referred to as GFP) reporter gene and an sgRNA sequence specifically targeting the EGFP gene, followed by selection with 2 μg/ml puromycin for 5 days and analysis of EGFP by flow cytometry. Finally, A673/EWSR1::FLI1^tdTomato/Cas9 cells were infected with lentiviral particles expressing the plasmid pLenti CMV EGFP Blast (659-1) (a gift from Eric Campeau and Paul Kaufman; Addgene plasmid #17445 (Campeau et al., 2009)). […]

[7] = tested on: EWSR1::FLI1; assay: qRT-PCR of EWSR1::FLI1 expression in A673 cells; type: cell-based, human; details: compound at 2.5-10 μM for 48 hours, FIGS. 6B-6C
Method: as §2
(§3) In the experiment in FIG. 5D, cells were treated with 10 μM ketoconazole (Sigma, Cat #PHR1385; CAS No. 65277-42-1) for 72 hours. Dimethyl sulfoxide (DMSO) was used as vehicle control.

[8] = tested on: SMO and GLI1; assay: Immunoblot and qRT-PCR of SMO and GLI1 in NIH 3T3 cells; type: cell-based, mouse; details: FIG. 7E
Method: as §2, §1

[9] = tested on: EWSR1::FLI1; assay: Immunoblot of EWSR1::FLI1 protein levels (anti-FLI1 antibody) in A673 cells; type: cell-based, human; details: compound at 2.5-10 μM for 48 hours, FIGS. 6B-6C
Method: Cells extracts were prepared in radioimmunoprecipitation assay (RIPA) buffer (1% Triton-X100, 0.1% sodium dodecyl sulfate (SDS), 0.5% deoxycholic acid, 20 mM tris(hydroxymethyl)aminomethane (Tris), pH 7.5, 10% glycerol) containing 1× complete ethylenediaminetetraacetic acid (EDTA)-free protease inhibitor cocktail (Roche, Basel, Switzerland, Cat #11873580001) and 1 mM phenylmethylsulfonyl fluoride (PMSF). For the immunoblot in FIG. 7L, cells expressing FLAG-SMO (wild-type and mutants) were treated with 10 μM MG132 (Selleck Chemicals, Houston, TX, Cat #S2619; CAS No. 1211877-36-9) for 12 hours or 100 nM bafilomycin A1 (Selleck Chemicals, Cat #S1413; CAS No. 88899-55-2) for 6 hours. Total cell lysates (30 μg) were subjected to SDS-polyacrylamide gel electrophoresis (PAGE) and transferred to nitrocellulose membrane, which were blocked with 5% non-fat dry milk, and incubated with the following antibodies overnight at 4° C.: anti-C1GALT1 (1:1000 dilution; Santa Cruz Biotechnology, Dallas, TX, Cat #SC-100745), anti-FLI1 (1:2000 dilution; Abcam, Cambridge, United Kingdom, Cat #ab 133485), anti-EWSR1 (1:1000 dilution; Sigma Aldrich, Cat #HPA051771), anti-GLI1 (1:1000 dilution; Cell Signaling Technology, Danvers, MA, Cat #2553), anti-GLI2 (1:500 dilution; Abcam, Cat #ab187386), anti-PARP1 (1:500 dilution; Santa Cruz Biotechnology, Cat #SC-8007), anti-SMO (1:2000 dilution; Abcam, Cat #ab236465), anti-β-actin (1:2000 dilution; Sigma, Cat #A2228), anti-GAPDH (1:2000 dilution; Abcam, Cat #ab8245) or anti-FLAG M2 (1:1000 dilution; Sigma, Cat #F1804). The blots were imaged by exposing to x-ray film. The experiments were conducted three independent times, and the results from one representative experiment are shown.
as §3

[10] = Animal weight / tolerability in xenograft-bearing mice; details: mice with TC-71, TC-32 or TC-106 xenografts; 100 mg/kg; FIG. 11G
Method: A673, TC-71, TC-106, or TC-32 cells (5×10^6) were suspended in PBS and […] ® extracellular matrix (Corning Cat #356234) in a 1:1 ratio, and subcutaneously injected into the right flank of 6-7 week old NOD scid gamma (NSG) immunocompromised mice (n=3 for each vehicle or drug treatment). Tumor dimensions were measured every 3 days with calipers, and the tumor volume was calculated using the formula volume=width^2× length/2.

[11] = tested on: EWSR1::FLI1/ERG; assay: qRT-PCR and immunoblot of EWSR1::FLI1/ERG in TC-71, TC-32 and TC-106 cells; type: cell-based, human; details: 48 hours, FIG. 9D

Chain of C1GALT1 (Q9NS00 whole entry): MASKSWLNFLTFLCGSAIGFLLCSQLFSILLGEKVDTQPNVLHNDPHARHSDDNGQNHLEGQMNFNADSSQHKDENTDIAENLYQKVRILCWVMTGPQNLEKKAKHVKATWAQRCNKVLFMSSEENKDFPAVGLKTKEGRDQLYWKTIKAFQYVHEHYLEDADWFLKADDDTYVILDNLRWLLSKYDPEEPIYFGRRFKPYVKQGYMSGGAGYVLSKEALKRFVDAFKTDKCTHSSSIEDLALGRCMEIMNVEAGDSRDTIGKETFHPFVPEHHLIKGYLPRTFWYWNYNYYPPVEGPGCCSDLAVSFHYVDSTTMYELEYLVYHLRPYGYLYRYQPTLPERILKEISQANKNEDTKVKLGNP

With `CC(C)C[C@@H](C=O)NC(=O)[C@H](CC(C)C)NC(=O)[C@H](CC(C)C)NC(=O)OCc1ccccc1` [MG132] (Cbz-Leu-Leu-Leu-aldehyde) as the molecule, how does the “expression of SMO (T55A) and SMO (T500A) mutant proteins” value [1] read?
Its value is “restored”.

What about the “stability of O-GalNAc-glycosylation-defective SMO mutants” value [2] of the same molecule?
The value was “restored”.

And the “reduction in SMO levels observed upon ITZ treatment” value [3]?
Its value is “reversed”.

What about the “ubiquitination of SMO (T55A) and SMO (T500A)” value [4] of the same molecule?
Its value is “detected”.

What does the source list for `CC(=O)N1CCN(c2ccc(OCC3COC(Cn4ccnc4)(c4ccc(Cl)cc4Cl)O3)cc2)CC1` (stereo not shown) [ketoconazole]?
inhibition of C1GALT1 [5]: not to inhibit; also recorded: does not inhibit; EWSR1::FLI1 expression (EWSR1::FLI1^tdTomato reporter) [6]: does not reduce; also recorded: no effect; also recorded: did not result in reduced

For `CNC1CCC(N(Cc2cccc(-c3ccncc3)c2)C(=O)c2sc3ccccc3c2Cl)CC1.Cl` (stereo not shown) [SAG, Smoothened Agonist hydrochloride], which “EWSR1::FLI1 mRNA levels” value [7] is on record?
Its value is “dose-dependent increase”.

What about the “levels of SMO and GLI1” value [8] of the same molecule?
Its value is “increased levels”.

What about the “EWSR1::FLI1 protein levels” value [9] of the same molecule?
Its value is “dose-dependent increase”.

What does the source list for `CCC(C)n1ncn(-c2ccc(N3CCN(c4ccc(OCC5COC(Cn6cncn6)(c6ccc(Cl)cc6Cl)O5)cc4)CC3)cc2)c1=O` (stereo not shown) [ITZ, itraconazole]?
animal weight [10]: absence of weight loss; EWSR1::FLI1/ERG expression [11]: reduced

For `CN(C)c1ccccc1CN1CCCN(Cc2ccccc2N(C)C)C1c1ccncc1` [GANT-61], which “EWSR1::FLI1 mRNA levels” value [7] is on record?
The value was “dose-dependent reduction”.

What about the “EWSR1::FLI1 protein levels” value [9] of the same molecule?
The value was “dose-dependent reduction”.

For `CC1=C2C[C@H]3[C@@H](CC=C4C[C@@H](O)CC[C@@]43C)[C@@H]2CC[C@]12O[C@@H]1C[C@H](C)CN[C@H]1[C@H]2C` [cyclopamine], which “EWSR1::FLI1 mRNA levels” value [7] is on record?
Its value is “dose-dependent reduction”.

And the “EWSR1::FLI1 protein levels” value [9]?
The value was “dose-dependent reduction”.

For `CO/C1=C\C(C)=C\[C@@H](C)[C@@H](O)[C@@H](C)C/C(C)=C/C=C/[C@H](OC)[C@@H]([C@@H](C)[C@@H](O)[C@H](C)[C@@]2(O)C[C@@H](O)[C@H](C)[C@@H](C(C)C)O2)OC1=O` [bafilomycin A1], which “expression of SMO (T55A) and SMO (T500A) mutant proteins” value [1] is on record?
The value was “restored”.

And the “stability of O-GalNAc-glycosylation-defective SMO mutants” value [2]?
Its value is “restored”.

And the “reduction in SMO levels observed upon ITZ treatment” value [3]?
The value was “reversed”.

What about the “ubiquitination of SMO (T55A) and SMO (T500A)” value [4] of the same molecule?
The value was “detected”.
